Results published in patent US12350250B2, “Aggrelytes for treating ocular conditions” (The Regents of the University of Colorado, a Body Corporate, priority 2022, dated 2025).

Assays:
human recombinant αAC = biological target: T1, human recombinant αAC (Homo sapiens, UniProt P02489); experiment: AGE formation (CML, CEL) in glycated recombinant αAC; type: biochemical; details: αAC 3 mg/mL pretreated with 10 mM aggrelyte-2 for 24 h, glycating mixture 5 days
T1 sequence (P02489 1-173): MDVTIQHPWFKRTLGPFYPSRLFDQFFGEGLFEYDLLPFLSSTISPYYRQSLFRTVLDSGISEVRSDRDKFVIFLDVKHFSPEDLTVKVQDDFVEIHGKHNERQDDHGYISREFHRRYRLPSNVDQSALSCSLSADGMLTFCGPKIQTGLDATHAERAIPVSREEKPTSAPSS
Protocol: (§1) To investigate the effects of Aggrelyte-2 on advanced glycation end product (AGE) formation, human recombinant αAC (3 mg/mL) or γD-crystallin (γDC, 2 mg/mL) in PBS was treated with or without aggrelyte-2 (10 mM for αAC and 1.25 mM for γDC) for 24 h, dialyzed against 100 mM sodium phosphate buffer pH 7.4 for 16 h and incubated with or without a glycating mixture (2 mM ascorbate, 25 mM D-glucose and 250 μM methylglyoxal) in 100 mM sodium phosphate buffer pH 7.4 for 5 days (after adding 0.002% sodium azide) at 37° C. The incubated proteins were dialyzed against PBS for 16 h, treated with 100 mM sodium borohydride for 1 h at room temperature, and acid hydrolyzed. Two AGEs, N^−-carboxymethyllysine (CML) and N^□-carboxyethyllysine (CEL), were measured by LC-MS/MS as described above. Each sample was separately processed 3-4 times.

αB-crystallin (αBC) = experiment: Crystallin levels in solubilized human lens proteins (Western blot), αBC; type: biochemical; details: 500 μM, solubilized proteins of three human lenses; not significant
Protocol: The contents of crystalline proteins [αA-crystallin (αAC), αB-crystallin (αBC), β-crystallin (βC), and γ-crystallin (γC)] in the solubilized proteins of three human lenses treated with either Aggrelyte-2 or Aggrelyte-2C (500 μM) from Example 4 were determined by Western blot analysis as described for Example 5. Membranes were incubated with antibodies against αAC (1:14,000 dilution; Enzo Life Sciences, Catalog #ADI-SPA-221D), αBC (1:700,000 dilution; University of Iowa), βC (1:14,000 dilution; Santa Cruz Biotechnology, Catalog #sc-22745), and γC (1:7,000 dilution; Santa Cruz Biotechnology, Catalog #sc-22746). The secondary antibodies were HRP-conjugated anti-mouse IgG for αBC and HRP-conjugated […] (Cell Signaling Technology, Catalog #7074S) for αAC, βC, and γC. According to the supplier, the […] detects mostly βB1-crystallin and, to a lesser extent, βA1/3, βA2, βA4, βB2, and βB3-crystallin. The γC antibody reacts with γA, γB, γC, γD, γE, and γF-crystallin.

mouse lenses [1] = experiment: AcK-bearing proteins in WS fraction of treated mouse lenses (Western blot); details: 1 mM, 24 hours, vs untreated controls (p<0.01) and Aggrelyte-2C (p<0.001)
Protocol: Mouse and human lenses were treated with aggrelytes as described in Example 10. Water-soluble proteins from mouse and human lenses were obtained as described in Example 13. Effects of aggrelyte treatment on AcK-bearing proteins in the WS fractions were evaluated by Western blot analysis as described in Example 5. For Western blotting, 10-20 μg of protein from each lens sample was used and each sample was separately processed three times and analyzed.

γD-crystallin (γDC) = biological target: T2, γD-crystallin (γDC) (Homo sapiens, UniProt P07320); experiment: AGE formation (CML, CEL) in glycated recombinant γD-crystallin; type: biochemical; details: γDC 2 mg/mL pretreated with 1.25 mM aggrelyte-2 for 24 h, glycating mixture 5 days
T2 sequence (P07320 1-174): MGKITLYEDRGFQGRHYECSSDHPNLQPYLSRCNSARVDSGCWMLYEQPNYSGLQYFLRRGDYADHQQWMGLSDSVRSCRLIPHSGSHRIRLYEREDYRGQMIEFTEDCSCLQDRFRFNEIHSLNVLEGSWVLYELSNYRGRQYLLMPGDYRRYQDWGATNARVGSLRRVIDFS
Protocol: as §1

mouse lenses [2] = experiment: Stiffness of ex vivo mouse lenses (Example 18); parameters: species or system mouse (C57BL/6J); details: 1 mM, 24 hours, ex vivo mouse lenses (3-6 months old); not significant
Protocol: In this example, the lenses were dissected from the eyes of mice (C57BL/6J, 3-6 months old, Jackson Laboratories, Stock No. 000664) by a posterior approach and incubated without (“Control”) or with Aggrelyte-2 or Aggrelyte-2A (1 mM) for 24 hours in serum-free and phenol-red-free MEM (297 mOsm) at 37° C. Lens stiffness was measured as in Example 10, except that the load was applied at 50 mg increments.

mouse lenses [3] = experiment: Acetylated proteins in ex vivo treated mouse lenses (Western blot, Example 19); details: 1 mM, 24 hours
Protocol: The lenses from Example 18 were homogenized using N2-bubbled 50 mM phosphate buffer, pH 7.4 (0.4 mL per lens), in a hand-held motorized homogenizer. The homogenate was centrifuged at 20,000×g for 20 minutes at 4° C. The resulting supernatant was collected, and its protein content was measured using BCA Protein Assay Kit using BSA as the standard. The soluble protein was subjected to 12% SDS-PAGE under denaturing conditions and the proteins were electrophoretically transferred to a nitrocellulose membrane and blocked with 5% nonfat dry milk. The membrane was then incubated with a monoclonal antibody against N-acetyllysine (AcK antibody @ 1:5,000 dilution; Cell Signaling Technology Catalog #9681S) for 16 hours, followed by horseradish peroxidase (HRP)-conjugated goat anti-mouse IgG (1:5,000 dilution; Cell Signaling Technology Catalog #7076S) for 1 hour. Chemiluminescence was detected using the Enhanced Chemiluminescence Detection Kit. The membrane was stained with Ponceau-S to visualize the proteins and normalize acetyllysine (AcK)-bearing protein to total protein load.

mouse lenses [4] = experiment: AcK in WS fraction of treated mouse lenses (LC-MS/MS); details: 1 mM, 24 hours, vs untreated controls and Aggrelyte-2C (p<0.0001)
Protocol: Mouse and human lenses were treated with aggrelytes as described in Example 10. Water-soluble proteins from mouse and human lenses were obtained as described in Example 13. Effects of aggrelyte treatment on AcK-bearing proteins in the WS fractions were evaluated by LC-MS/MS analysis as described in Example 6.

human lenses = experiment: Stiffness of ex vivo human lenses (Example 22); details: 250 μM, 48 hours, ex vivo human lenses (47-67 years)
Protocol: To test the effects of Aggrelyte-2 and Aggrelyte-2A on human lenses (age: 47-67 years), lenses were incubated in media containing freshly dissolved aggrelyte (250 μM) for 48 hours, with aggrelyte replacement after 24 hours. One lens from each donor pair was treated with aggrelyte, while the other was used as the control. After incubation, lens stiffness was measured, as described above in Example 20.

**Q.** Which “levels of both CML and CEL (AGEs) after glycation” value (human recombinant αAC) does the source give for `COC(=O)[C@H](CSC(C)=O)NC(C)=O` [Aggrelyte-2, N,S-diacetyl-L-cysteine methyl ester] here?
**A.** The value was “significantly reduced (p<0.0001)”.

**Q.** And the “levels of αBC, fold higher than in the Aggrelyte-2C-treated samples” value (αB-crystallin (αBC))?
**A.** Its value is 1.1 fold.

**Q.** And the “levels of αBC, fold higher than in the Controls” value (αB-crystallin (αBC))?
**A.** The value was 1.2 fold.

**Q.** And the “AcK modifications in WS proteins (Western blot)” value (mouse lenses [1])?
**A.** Its value is “significantly higher AcK modifications”.

**Q.** And the “levels of both CML and CEL (AGEs) after glycation” value (γD-crystallin (γDC))?
**A.** The value was “significantly reduced (p<0.0001)”.

**Q.** And the “reduction of lens stiffness” value (mouse lenses [2])?
**A.** The value was “approximately 20%”.

**Q.** What about the “density of acetyl-bearing proteins, fold increase compared to untreated control lenses” value (mouse lenses [3]) of the same compound?
**A.** Its value is 2 fold.

**Q.** What about the “AcK modifications in WS proteins (LC-MS/MS)” value (mouse lenses [4]) of the same compound?
**A.** The value was “significantly higher AcK modifications”.

**Q.** What about the “effect on lens stiffness” value (human lenses) of the same compound?
**A.** Its value is “no effect on stiffness”.
